# System: PGF2 alpha
# Assay: Inhibition of prostaglandin F2 alpha levels in UVB-exposed keratinocytes (ELISA)
# Type: cell-based
# Settings: UVB-induced human keratinocytes; PGF2 alpha measured by ELISA 24 hours post-treatment; FIG. 1
# Method: Human keratinocytes were harvested and exposed to with UVB light to induce PGF2 alpha release. Following exposure to UVB irradiation, the cells were treated with a composition comprising 1% 4-ethoxybenzaldehyde, Indomethacin (positive control) or left untreated (negative control). After 24 hours post-treatment, PGF2 alpha levels were measured by ELISA analysis.
smiles,measurement,value
CCOc1ccc(C=O)cc1 [4-ethoxybenzaldehyde],inhibition of PGF2 alpha,dose-dependent inhibition
